Test results reported in PMC6199744, “Development of Chemical Proteomics for the Folateome and Analysis of the Kinetoplastid Folateome” (ACS Infectious Diseases, 2018).

Tested on: L. major lysate proteins
Experiment: Multitargeted bead mixture chemoproteomics, single concentration competition, proteome-wide
Type: binding
Conditions: for fold change: vehicle control = 1

Structure (SMILES): Nc1nc2[nH]cc(CCc3ccc(C(=O)N[C@@H](CCC(=O)O)C(=O)O)cc3)c2c(=O)[nH]1 [PTX, pemetrexed]
- fold change (protein LMJF.15.0040 HY[…], CONSERVED (Possible lysine decarboxylase, putative)): 0.69
- fold change vs vehicle control (protein LMJF.15.0690 HY[…], CONSERVED): 1.2
- fold change (protein LMJF.15.1010 GLUTAMATE DEHYDROGENASE): 1
- fold change (protein LMJF.15.1190 HY[…], CONSERVED (cyclic nucleotide-binding domain containing protein, putative)): 0.98
- fold change vs vehicle control (protein LMJF.16.0520 HY[…], CONSERVED): 0.76
- fold change vs vehicle control (protein LMJF.16.0540 ASPARTATE CARBAMOYLTRANSFERASE, PUTATIVE): 0.92
- fold change relative to vehicle control (protein LMJF.16.0760, TRANSALDOLASE, PUTATIVE): 1.18
- fold change vs vehicle control (protein LMJF.16.0940 DYNEIN LIGHT CHAIN, PUTATIVE): 1.1
- fold change relative to vehicle control (protein LMJF.16.1180, COATOMER DELTA SUBUNIT-LIKE PROTEIN): 1.15
- fold change relative to vehicle control (protein LMJF.16.1320, CYTOCHROME C, PUTATIVE): 1.56
- fold change relative to vehicle control (protein LMJF.16.1420, HY[…], CONSERVED): 1.13
- fold change relative to vehicle control (protein LMJF.17.0081, […] 1-ALPHA): 1.06
- fold change relative to vehicle control (protein LMJF.18.0270, GLYCOGEN SYNTHASE KINASE, PUTATIVE): 0.92
- fold change (protein LMJF.18.0580 P[…]-COA HYDRATASE, PUTATIVE): 0.93
- fold change relative to vehicle control (protein LMJF.18.0680, CITRATE SYNTHASE, PUTATIVE): 1.08
- fold change vs vehicle control (protein LMJF.18.1010 DYNEIN LIGHT CHAIN 2B, CYTOPLASMIC, PUTATIVE): 1.03
- fold change vs vehicle control (protein LMJF.18.1210 PROLYL-TRNA SYNTHETASE, PUTATIVE,BI[…]-TRNA SYNTHETASE, PUTATIVE): 0.97
- fold change vs vehicle control (protein LMJF.18.1370 HEAT SHOCK PROTEIN, PUTATIVE): 1.02
- fold change (protein LMJF.19.0200 ADP,ATP CARRIER PROTEIN 1, MIT[…], PUTATIVE): 1.02
- fold change vs vehicle control (protein LMJF.19.1120 […]-ATP-ASE SUBUNIT, PUTATIVE): 0.91
- fold change vs vehicle control (protein LMJF.19.1160 HY[…], CONSERVED): 0.92
- fold change vs vehicle control (protein LMJF.19.1560 INOSINE-5'-MONOPHOSPHATE DEHYDROGENASE): 0.92
- fold change relative to vehicle control (protein LMJF.19.1620, POTASSIUM VOLTAGE-GATED CHANNEL, PUTATIVE): 1.13
- fold change vs vehicle control (protein LMJF.20.1280 SMALL MYR[…] 4, PUTATIVE): 0.89
- fold change (protein LMJF.21.0810 METHIONYL-TRNA SYNTHETASE, PUTATIVE): 0.98
- fold change (protein LMJF.21.1450 ARGININE N-METHYLTRANSFERASE, TYPE II, PUTATIVE): 0.98
- fold change vs vehicle control (protein LMJF.21.1830 […] 5 SUBUNIT, PUTATIVE,20S […] ALPHA 5, (PUTATIVE)): 0.96
- fold change (protein LMJF.22.0230 AMINO ACID PERMEASE, PUTATIVE): 1.09
- fold change vs vehicle control (protein LMJF.22.0570 […] SUBUNIT 1, PUTATIVE): 1.04
- fold change vs vehicle control (protein LMJF.22.0730 HY[…], CONSERVED): 0.96
- fold change (protein LMJF.22.0770 NADH-CYTOCHROME B5 REDUCTASE, PUTATIVE): 0.82
- fold change relative to vehicle control (protein LMJF.23.0020, HY[…], CONSERVED): 1.35
- fold change relative to vehicle control (protein LMJF.23.0040, PEROXIDOXIN): 0.99
- fold change relative to vehicle control (protein LMJF.23.0080, HY[…], CONSERVED): 0.97
- fold change (protein LMJF.23.0210 ATP-BINDING CASSETTE PROTEIN SUBFAMILY C, MEMBER 1, PUTATIVE): 0.87
- fold change (protein LMJF.23.0370 CYTOCHROME C OXIDASE SUBUNIT 10, PUTATIVE): 0.9
- fold change relative to vehicle control (protein LMJF.23.0540, ACETYL-COA SYNTHETASE, PUTATIVE): 1.05
- fold change vs vehicle control (protein LMJF.23.0560 KINESIN, PUTATIVE): 1.12
- fold change vs vehicle control (protein LMJF.23.1410 HY[…], CONSERVED): 0.97
- fold change relative to vehicle control (protein LMJF.24.0070, HY[…], CONSERVED): 1.03
- fold change (protein LMJF.24.0140 ANKYRIN/TPR REPEAT PROTEIN): 0.86
- fold change (protein LMJF.24.0400 HY[…], CONSERVED (TPR repeat, putative)): 0.87
- fold change relative to vehicle control (protein LMJF.24.1510, IGE-DEPENDENT HISTAMINE-RELEASING FACTOR, PUTATIVE): 1.15
- fold change relative to vehicle control (protein LMJF.24.1630, SUCCINATE DEHYDROGENASE FLAVOPROTEIN, PUTATIVE): 0.98
- fold change relative to vehicle control (protein LMJF.24.2060, TRANSKETOLASE): 0.96
- fold change relative to vehicle control (protein LMJF.25.0010, BETA GALACTOFURANOSYL TRANSFERASE): 1.17
- fold change relative to vehicle control (protein LMJF.25.0910, C[…]): 1.55
- fold change vs vehicle control (protein LMJF.25.1130 CYTOCHROME C OXIDASE VII, PUTATIVE): 0.92
- fold change relative to vehicle control (protein LMJF.25.1180, ATPASE BETA SUBUNIT, PUTATIVE): 1
- fold change vs vehicle control (protein LMJF.25.1610 HY[…], CONSERVED): 0.99
- fold change vs vehicle control (protein LMJF.25.1620 HY[…], CONSERVED): 1.01
- fold change (protein LMJF.25.2340 SERINE/THREONINE-PROTEIN KINASE, PUTATIVE,PROTEIN KINASE, PUTATIVE): 0.74
- fold change relative to vehicle control (protein LMJF.26.0630, HY[…], CONSERVED): 0.9
- fold change vs vehicle control (protein LMJF.26.1240 HEAT SHOCK PROTEIN 70-RELATED PROTEIN): 0.88
- fold change (protein LMJF.26.1710 CYTOCHROME C OXIDASE SUBUNIT V, PUTATIVE): 0.94
- fold change vs vehicle control (protein LMJF.26.2480 CDP-DIACYLGLYCEROL--INOSITOL 3-PHOSPHATIDYLTRANSFERASE, PUTATIVE): 1.06
- fold change vs vehicle control (protein LMJF.26.2560 HY[…], CONSERVED): 0.66
- fold change vs vehicle control (protein LMJF.27.0190 […] 7 SUBUNIT, PUTATIVE): 0.91
- fold change (protein LMJF.27.0650 HY[…], CONSERVED): 0.99
- fold change (protein LMJF.27.0700 HY[…], CONSERVED): 0.86
- fold change vs vehicle control (protein LMJF.27.0760 GTP-binding protein homologue): 1.01
- fold change vs vehicle control (protein LMJF.27.1060 CYSTEINE DESULFURASE, PUTATIVE): 0.96
- fold change vs vehicle control (protein LMJF.27.1110 MIT[…] BINDING PROTEIN 1,GBP21, MRP1): 1.06
- fold change (protein LMJF.27.1250 HY[…], CONSERVED (Serine-threonine kinase receptor-associated protein, putative)): 0.88
- fold change relative to vehicle control (protein LMJF.27.1390, 60S ACIDIC RIBOSOMAL SUBUNIT PROTEIN, PUTATIVE): 1.07
- fold change (protein LMJF.27.1460 […]-ATP-ASE SUBUNIT 3, PUTATIVE): 0.89
